Data: US11666567B2, “Bromocriptine formulations” (VeroScience LLC, priority 2012, dated 2023)

Assay: Volume-based particle size distribution of bromocriptine mesylate by laser diffractometry (Sympatec HELOS)
Type: physicochemical
Settings: Table 13, micronized material used for Example 9 tablets
Description: The parameters Dv10, Dv50, Dv90 and Dv99 represent the particle size at the 10%, 50%, 90% and 99% points of the cumulative volume undersize particle size distribution. Thus, a “Dv10” for a material represents a particle size wherein 10% of the volume of the material consists of particles having a particle size equal to the Dv10 value or smaller. A “Dv50” for a material represents a particle size wherein 50% of the volume of the material consists of particles having a particle size equal to the Dv50 value or smaller. A “Dv90” for a material represents a particle size wherein 90% of the volume of the material consists of particles having a particle size equal to the Dv90 value or smaller. A “Dv99” for a material represents a particle size wherein 99% of the volume of the material consists of particles having a particle size equal to the Dv99 value or smaller.
The particle size distribution ranges defined herein are based upon measurements made using technology and instruments using laser particle size analysis using the instruments and methods developed by [sequence] GmbH, in particular Sympatec HELOS which can provide particle size analysis of dry and wet samples, i.e., of powders, suspensions, emulsions or sprays and is built to the specifications of ISO 13320 “Particle size analysis—laser diffraction methods.”
Finally, the possible role of the particle size of bromocriptine mesylate used in the manufacturing process was investigated. The volume-based particle size distribution for the bromocriptine mesylate used in preparing the tablet batches was measured by laser diffractometry using a Sympatec HELOS Laser Diffractometer.
Bulk batches of bromocriptine mesylate were micronized using a jet mill under a nitrogen atmosphere at a controlled temperature of 0° C. The volume particle size distribution was measured using a Sympatec HELOS H1013 Laser Diffractometer.

SMILES: CC(C)C[C@H]1C(=O)N2CCC[C@H]2[C@]2(O)O[C@](NC(=O)[C@@H]3C=C4c5cccc6[nH]c(Br)c(c56)C[C@H]4N(C)C3)(C(C)C)C(=O)N12.CS(=O)(=O)O [Micronized Bromocriptine Mesylate]
- % < 1 μm: 9%
- % < 10 μm: 98%
- % < 15 μm: 100%
